Experimental data: ChEMBL document CHEMBL1157929, “Thioether benzenesulfonamide inhibitors of carbonic anhydrases II and IV: structure-based drug design, synthesis, and biological evaluation” (Bioorg Med Chem, 2010)
Values after ≈ are worked out from the molar mass of the structure shown.

Assay: Solubility at pH 6.5 after 24 hrs by chemiluminescence assay
Type: physicochemical
Conditions: buffer

| SMILES | solubility at 24 h [µM] |
| --- | --- |
| COc1ccc(CNC(=O)c2cc(S(N)(=O)=O)cnc2Sc2ccc(F)c(F)c2)cc1 | < 19.9 |
| NS(=O)(=O)c1ccc(Sc2c(F)c(F)cc(F)c2F)c(C(=O)NCCc2ccccn2)c1 | 211 (≈ 102 µg/mL) |
| CCNCc1cc(S(N)(=O)=O)cnc1Sc1ccc(F)c(F)c1 | 449 (≈ 161 µg/mL) |
| COCCCNCc1cc(S(N)(=O)=O)cnc1Sc1ccc(F)c(F)c1 | 497 (≈ 201 µg/mL) |
| CCNC(=O)c1cc(S(N)(=O)=O)cc(F)c1SCC(C)C | 553 (≈ 185 µg/mL) |
| NS(=O)(=O)c1ccc(Sc2c(F)c(F)cc(F)c2F)nc1 | 558 (≈ 189 µg/mL) |
| CC(C)CNC(=O)c1cc(S(N)(=O)=O)ccc1SC(C)C | 689 (≈ 228 µg/mL) |
| CCNC(=O)c1cc(S(N)(=O)=O)ccc1SC1CCCC1 | 628 (≈ 206 µg/mL) |
| NS(=O)(=O)c1ccc(Oc2ccccc2)c(C(=O)NCc2ccccc2)c1 | 28.5 (≈ 10.9 µg/mL) |
| NS(=O)(=O)c1ccc(SCc2ccccc2)c(C(=O)NCc2ccccc2)c1 | < 24.2 |
| NS(=O)(=O)c1ccc(Sc2ccccc2CO)c(C(=O)NCc2ccccn2)c1 | > 258 |
| NS(=O)(=O)c1ccc(Sc2ccccn2)c(C(=O)NCc2ccccn2)c1 | > 253 |
| NS(=O)(=O)c1ccc(Sc2ccccc2)c(C(=O)NCc2ccccc2)c1 | < 25.1 |
| NS(=O)(=O)c1ccc(S(=O)(=O)c2ccccc2)c(C(=O)NCc2ccccc2)c1 | 55.9 (≈ 24.1 µg/mL) |
| NS(=O)(=O)c1cnc(Sc2ccc(F)c(F)c2)c(CO)c1 | > 353 |
| NS(=O)(=O)c1cnc(Sc2c(F)c(F)cc(F)c2F)c(C(=O)NCc2ccccn2)c1 | < 21.2 |
| CCNC(=O)c1cc(S(N)(=O)=O)cc(F)c1SC(C)C | 498 (≈ 160 µg/mL) |
| NCCCCNC(=O)c1cc(S(N)(=O)=O)cnc1Sc1c(F)c(F)cc(F)c1F | > 265 |
| COc1ccc(CCCNC(=O)c2cc(S(N)(=O)=O)cnc2Sc2c(F)c(F)cc(F)c2F)cc1 | < 19 |

Other lines, results leading:

| solubility at 24 h [µM] | SMILES |
| --- | --- |
| 118 (≈ 39.8 µg/mL) | CCNC(=O)c1cc(S(N)(=O)=O)cnc1Sc1ccccc1 |
| 40.9 (≈ 17.1 µg/mL) | COCCCNC(=O)c1cc(S(N)(=O)=O)cnc1Sc1ccc(F)c(F)c1 |
| < 22.2 | NS(=O)(=O)c1cnc(Sc2ccccc2)c(C(=O)NCCc2ccccc2)c1 |
| 89.6 (≈ 35.8 µg/mL) | COCCCNC(=O)c1cc(S(N)(=O)=O)cnc1Sc1cccc(F)c1 |
| > 275 | NS(=O)(=O)c1ccc(Sc2ccccc2)c(C(=O)NCc2ccccn2)c1 |
| > 304 | COCCNC(=O)c1cc(S(N)(=O)=O)ccc1SCCc1ccccc1 |
| 205 (≈ 69 µg/mL) | CCNC(=O)c1cc(S(N)(=O)=O)ccc1Sc1ccccc1 |
| 43.2 (≈ 15.4 µg/mL) | CCNC(=O)c1cc(S(N)(=O)=O)cnc1Sc1cccc(F)c1 |
| > 265 | CN(C)CCNC(=O)c1cc(S(N)(=O)=O)cnc1Sc1ccccc1 |
| 35.6 (≈ 13.1 µg/mL) | COCCNC(=O)c1cc(S(N)(=O)=O)cnc1Sc1ccccc1 |
| > 287 | COCCCNC(=O)c1cc(S(N)(=O)=O)cnc1Sc1ccccc1 |
| 156 (≈ 54.8 µg/mL) | CCCNC(=O)c1cc(S(N)(=O)=O)cnc1Sc1ccccc1 |
| 214 (≈ 97 µg/mL) | COCCCNC(=O)c1cc(S(N)(=O)=O)cnc1Sc1c(F)c(F)cc(F)c1F |

Assay: physchem
Conditions: buffer, pH 6.5

| solubility thermodynamic at 4 h [µM] | SMILES |
| --- | --- |
| 395 (≈ 132 µg/mL) | CCNC(=O)c1cc(S(N)(=O)=O)cc(F)c1SCC(C)C |
| 231 (≈ 78.1 µg/mL) | NS(=O)(=O)c1ccc(Sc2c(F)c(F)cc(F)c2F)nc1 |
| 124 (≈ 56.2 µg/mL) | COCCCNC(=O)c1cc(S(N)(=O)=O)cnc1Sc1c(F)c(F)cc(F)c1F |
| 3090 (≈ 1400 µg/mL) | NCCCCNC(=O)c1cc(S(N)(=O)=O)cnc1Sc1c(F)c(F)cc(F)c1F |
